Results as given in patent publication US20250074911A1, “MACROCYCLIC BTK INHIBITORS” (Crossfire Oncology Holding B.V., priority 2021, published 2025).
Values joined by “and” are separate entries in the source; they are usually repeats but may differ in a detail not shown here. Equal entries are not always repeated.

Columns and labels:
[1] = target: full-length wt-BTK enzyme (Homo sapiens (Human), UniProt Q06187); assay: Biochemical kinase assay wt-BTK (IMAP)
Outline: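 IMAP fluorescence polarization assay: 1.2 nM enzyme pre-incubated 1 h with compound at room temperature, then 50 nM fluorescein-labeled MBP-derived peptide and 4 μM ATP added. Reaction ran 2 h at room temperature in the dark before quenching with IMAP binding solution.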

[2] = target: full-length BTK C481S enzyme (Homo sapiens (Human), UniProt Q06187, C481S); assay: Biochemical kinase assay BTK C481S (IMAP)
Sequence of full-length BTK C481S enzyme (Q06187 whole entry C481S): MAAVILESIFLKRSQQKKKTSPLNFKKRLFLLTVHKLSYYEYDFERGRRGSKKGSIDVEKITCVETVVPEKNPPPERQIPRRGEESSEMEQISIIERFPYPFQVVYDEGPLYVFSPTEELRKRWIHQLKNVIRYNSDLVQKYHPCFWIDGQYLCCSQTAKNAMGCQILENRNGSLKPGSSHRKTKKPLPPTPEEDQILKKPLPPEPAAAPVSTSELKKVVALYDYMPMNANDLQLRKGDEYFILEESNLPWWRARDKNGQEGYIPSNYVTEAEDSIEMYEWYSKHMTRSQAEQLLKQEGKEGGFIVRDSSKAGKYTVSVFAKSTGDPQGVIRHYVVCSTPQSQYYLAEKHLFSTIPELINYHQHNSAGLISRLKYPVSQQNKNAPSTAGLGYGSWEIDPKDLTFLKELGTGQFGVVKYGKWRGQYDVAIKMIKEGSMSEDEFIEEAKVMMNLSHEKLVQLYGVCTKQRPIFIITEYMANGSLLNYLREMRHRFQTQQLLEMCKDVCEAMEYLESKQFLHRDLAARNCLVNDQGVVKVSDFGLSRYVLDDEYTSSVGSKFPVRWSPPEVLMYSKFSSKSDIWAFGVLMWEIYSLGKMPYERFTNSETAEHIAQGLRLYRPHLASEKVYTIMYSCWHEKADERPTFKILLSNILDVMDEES
Outline: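 Full-length BTK C481S (1.2 nM) was pre-incubated with compound for 1 h at room temperature in the dark, then reacted with fluorescein-labelled MBP-derived peptide (50 nM) and ATP (7 μM) for 2 h. Reactions were quenched with IMAP binding solution, and IC50 values were derived from fluorescence polarization.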

[3] = system: wt-REC-1 mantle cell lymphoma cells; assay: Cell proliferation assay wt-REC-1 (ATPlite, 72 hours); format: cell-based; details: 72 h; read-out: IC50 wt-REC-1
Outline: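 Luminescent viability read over 72 h, start-of-incubation signal recorded separately to separate growth from cell death. Percentage growth referenced to compound-free 0.3% DMSO wells; IC50 from 4-parameter logistic fit.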

[4] = system: REC-1 T474I cell lines; assay: Cell proliferation assay REC-1 BTK T474I knock-in cells (ATPlite, 72 hours); format: cell-based; details: Homo sapiens, Rec1; 72 hours; read-out: IC50 REC-1 T474I
Outline: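 REC-1 cells carrying CRISPR knock-in mutant BTK, single-cell cloned and sequence-confirmed, were exposed to compound for 72 h and read by ATPlite luminescence. Percentage growth was calculated against the signal at the start of incubation and against untreated 0.3% DMSO wells as maximum growth.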

[5] = target: wt-BTK (Homo sapiens (Human), UniProt Q06187); assay: Binding kinetics measurements (Surface Plasmon Resonance) on wt-BTK; details: for Kd: binding affinity by Surface Plasmon Resonance (SPR); for Tau (h) wt-BTK (Act): target residence time, SPR
Sequence of wt-BTK (Q06187 whole entry): as the sequence (Q06187 whole entry C481S) above, with S481C counted along it
Outline: (§1)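 Biotinylated BTK captured on streptavidin chips (4° C; free streptavidin blocked with biocytin); runs at 22° C in buffer with 1% DMSO, 30 μl/min. Single cycle kinetics, five injections rising over 3.16-316 nM; double-referenced sensorgrams fitted, two-state model for induced fit, duplicate constants geometrically averaged.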

[6] = target: BTK C481S (Homo sapiens (Human), UniProt Q06187, C481S); assay: Binding kinetics measurements (Surface Plasmon Resonance) on BTK C481S; details: for Kd: binding affinity by Surface Plasmon Resonance (SPR); for Tau (h) BTK C418S (Act): target residence time for BTK C481S, SPR
Sequence of BTK C481S (Q06187 whole entry C481S): as the sequence (Q06187 whole entry C481S) above
Outline: as §1

[7] = target: BTK T316A (Homo sapiens (Human), UniProt Q06187, T316A); assay: Binding kinetics measurements (Surface Plasmon Resonance) on BTK T316A; details: for Kd: binding affinity by Surface Plasmon Resonance (SPR); for Tau (h) BTK T316A (Act): target residence time, SPR
Sequence of BTK T316A (Q06187 whole entry T316A): as the sequence (Q06187 whole entry C481S) above, with T316A, S481C counted along it
Outline: as §1

[8] = target: BTK T474I (Homo sapiens (Human), UniProt Q06187, T474I); assay: Binding kinetics measurements (Surface Plasmon Resonance) on BTK T474I; details: for Kd: binding affinity by Surface Plasmon Resonance (SPR); for Tau (h) BTK T474I (Act): target residence time, SPR
Sequence of BTK T474I (Q06187 whole entry T474I): as the sequence (Q06187 whole entry C481S) above, with T474I, S481C counted along it
Outline: as §1

[9] = target: BTK T474S (Homo sapiens (Human), UniProt Q06187, T474S); assay: Binding kinetics measurements (Surface Plasmon Resonance) on BTK T474S; details: for residence time: SPR binding kinetics, BTK T474S, read-out: Tau (h) BTK T474S (Act), target residence time (converted); for Kd: binding affinity by Surface Plasmon Resonance (SPR)
Sequence of BTK T474S (Q06187 whole entry T474S): as the sequence (Q06187 whole entry C481S) above, with T474S, S481C counted along it
Outline: as §1

[10] = system: wt-TMD8 diffuse large B-cell lymphoma cells; assay: Cell proliferation assay wt-TMD8 (ATPlite, 120 hours); format: cell-based; details: B-cell; wt-TMD8 cells, 120 hours, ATPlite; read-out: IC50 wt-TMD8
Outline: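 wt-TMD8 DLBCL cells, 1600 per well in RPMI-1640 with 10% FBS, rested ≥5 h then exposed to compound for 120 h at 37° C, 5% CO2. Viability read by ATPlite luminescence; percentage growth calculated relative to start-of-incubation signal and untreated 0.3% DMSO maximum growth.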

Sequence of full-length wt-BTK enzyme (Q06187 whole entry): as the sequence (Q06187 whole entry C481S) above, with S481C counted along it

Row | Compound | IC50 [1] | IC50 [2] | IC50 [3] | IC50 [4] | Kd [5] | Tau (h) wt-BTK (Act) [5] | Kd [6] | Tau (h) BTK C418S (Act) [6] | Kd [7] | Tau (h) BTK T316A (Act) [7] | Kd [8] | Tau (h) BTK T474I (Act) [8] | residence time [9] | Kd [9] | IC50 [10]
1 | C[C@@H]1C[C@@H](C)n2nc(-c3ccc(C(=O)Nc4cc(C(F)(F)F)ccn4)cc3)c3c(N)ncc(c32)/C=C/CCCCCC(=O)N1 [Example 172] | < 5 nM | < 5 nM | < 100 nM | < 100 nM | < 5 nM | 4.83 h | < 5 nM | 4.28 h | < 5 nM | 2.18 h | < 2 nM | 2.35 h | 18.9 h | < 3 nM | < 100 nM
2 | C[C@H]1OC/C=C/c2cnc(N)c3c(-c4ccc(C(=O)Nc5cc(C(F)(F)F)ccn5)cc4)nn(c23)[C@@H]2CCC[C@H](C2)NC1=O [Example 28] | < 5 nM | < 5 nM | < 100 nM | 100 to 500 nM | < 5 nM | 4.52 h | < 5 nM | 4.03 h | < 5 nM | 1.43 h | < 2 nM | 0.73 h | 3.77 h | < 3 nM | < 100 nM
3 | C[C@@H]1CCn2nc(-c3ccc(C(=O)Nc4cc(C(F)(F)F)ccn4)cc3)c3c(N)ncc(c32)/C=C/CCOCC(=O)N1 [Example 59] | < 5 nM | < 5 nM | < 100 nM | 500 to 10000 nM | < 5 nM | 1.10 h | < 5 nM | 2.05 h | < 5 nM | 1.04 h | 10 to 50 nM and < 5 nM |  |  | < 3 nM | < 100 nM
4 | Nc1ncc2c3c1c(-c1ccc(C(=O)Nc4ccccn4)cc1)nn3C1CCC[C@H](C1)NC(=O)CCCCC/C=C/2 [Example 24] | < 5 nM | < 5 nM | < 100 nM | < 100 nM |  | 4.78 h |  | 10.68 h |  | 2.66 h |  | 1.26 h | 3.19 h |  | < 100 nM
5 | C[C@@H]1CCn2nc(-c3ccc(C(=O)Nc4cc(C(F)(F)F)ccn4)cc3)c3c(N)ncc(c32)/C=C/CCCC(=O)N1 [Example 76] | < 5 nM | < 5 nM | 100 to 1000 nM | 500 to 10000 nM | < 5 nM | 0.97 h | < 5 nM | 1.63 h | < 5 nM |  | 10 to 50 nM and < 5 nM |  | 1.85 h | < 3 nM | < 100 nM
6 | Nc1ncc2c3c1c(-c1ccc(C(=O)Nc4cc(C(F)(F)F)ccn4)cc1)nn3[C@@H]1CCC[C@H](C1)NC(=O)CCOCC/C=C/2 [Example 26] | < 5 nM | < 5 nM | < 100 nM | < 100 nM | < 5 nM | 5.89 h | < 5 nM | 6.65 h | < 5 nM | 3.22 h | < 2 nM | 5.95 h | 1.79 h | < 3 nM | < 100 nM
7 | CN1C/C=C/c2cnc(N)c3c(-c4ccc(C(=O)Nc5cc(C(F)(F)F)ccn5)cc4)nn(c23)[C@@H]2CCC[C@H](C2)NC(=O)C1 [Example 9] | < 5 nM | < 5 nM | 100 to 1000 nM | 500 to 10000 nM | < 5 nM | 1.02 h | < 5 nM | 2.60 h | < 5 nM |  | 10 to 50 nM and < 5 nM |  | 1.53 h | < 3 nM | < 100 nM
8 | Nc1ncc2c3c1c(-c1ccc(C(=O)Nc4cc(C(F)(F)F)ccn4)cc1)nn3[C@@H]1CCC[C@H](C1)C(=O)NCCCC/C=C\C2 [Example 85b] | < 5 nM | < 5 nM | < 100 nM | 100 to 500 nM | < 5 nM | 4.08 h | < 5 nM | 7.12 h |  | 2.50 h | 10 to 50 nM and < 5 nM |  | 4.36 h | < 3 nM | < 100 nM
9 | Nc1ncc2c3c1c(-c1ccc(C(=O)Nc4cc(C(F)(F)F)ccn4)cc1)nn3[C@@H]1CCCN(C1)C(=O)CCCCCC/C=C/2 [Example 79] | < 5 nM | < 5 nM | < 100 nM | 100 to 500 nM | < 5 nM | 8.24 h | < 5 nM | 7.11 h | < 5 nM | 3.23 h | < 2 nM | 1.80 h | 6.2 h | < 3 nM | < 100 nM
10 | Nc1ncc2c3c1c(-c1ccc(C(=O)Nc4ccccn4)cc1)nn3[C@@H]1CCC[C@H](C1)C(=O)NCCCCC/C=C\C2 [Example 88b] | < 5 nM | < 5 nM | < 100 nM | 500 to 10000 nM | < 5 nM | 1.37 h | < 5 nM | 1.44 h | < 5 nM |  | 10 to 50 nM and < 5 nM |  |  | < 3 nM | < 100 nM
